Here are results for 1 compound from ChEMBL document CHEMBL6096689, “Structure-Guided Development of ClpP Agonists with Potent Therapeutic Activities against Staphylococcus aureus Infection” (J Med Chem, 2025).

Data set [1] is described as follows: Therapeutic index, ratio of IC50 for human ARH-77 cells to MIC for Staphylococcus aureus Newman. Format: toxicity, cell-based. As to conditions: read-out: TI.
Data set [2] is described as follows: Toxicity in female ICR mouse model of peritonitis infected with oxacillin-resistant Staphylococcus aureus clinical isolate XJ049 assessed as effect on body weight at 50 mg/kg, ip pre-infected for 1 hrs followed by compound addition and measured after 5 days. Format: organism-based. The following applies: in vivo, 120 h, time 5 day.
Data set [3] deals with T1, ATP-dependent Clp protease proteolytic subunit, mitochondrial (Homo sapiens, UniProt Q16740). The data set can be described thus: Induction of thermal stabilization of human ClpP extracted from Escherichia coli Rosetta (DE3) cells assessed as change in melting temperature at 10 uM incubated for 10 mins by DSF analysis.
T1 sequence (Q16740 whole entry): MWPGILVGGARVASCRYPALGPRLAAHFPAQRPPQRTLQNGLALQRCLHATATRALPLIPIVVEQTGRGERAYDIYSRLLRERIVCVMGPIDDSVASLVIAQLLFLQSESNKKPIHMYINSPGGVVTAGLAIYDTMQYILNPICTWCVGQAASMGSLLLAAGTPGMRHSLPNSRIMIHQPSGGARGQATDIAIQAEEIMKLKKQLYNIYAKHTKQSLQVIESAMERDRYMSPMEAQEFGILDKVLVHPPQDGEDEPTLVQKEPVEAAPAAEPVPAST
Data set [4] is described as follows: Therapeutic index, ratio of IC50 for HK-2 cells to MIC for Staphylococcus aureus Newman. The format is toxicity, cell-based. As to conditions: human, read-out: TI.
Data set [5] addresses T2, Cell division protein FtsZ (Staphylococcus aureus) (UniProt P0A031).
T2 sequence (whole entry): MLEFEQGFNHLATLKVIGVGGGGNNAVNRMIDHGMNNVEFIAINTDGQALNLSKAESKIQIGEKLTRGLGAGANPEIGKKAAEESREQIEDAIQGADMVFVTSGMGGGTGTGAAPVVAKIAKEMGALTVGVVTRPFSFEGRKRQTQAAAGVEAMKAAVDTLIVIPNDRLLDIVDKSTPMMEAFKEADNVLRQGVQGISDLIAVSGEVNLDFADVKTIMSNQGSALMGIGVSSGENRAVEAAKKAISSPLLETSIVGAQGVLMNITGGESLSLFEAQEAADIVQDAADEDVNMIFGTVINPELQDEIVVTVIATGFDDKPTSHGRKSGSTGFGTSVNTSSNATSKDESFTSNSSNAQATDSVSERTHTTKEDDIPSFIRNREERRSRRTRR
The data set can be described thus: Induction of FtsZ degradation in Staphylococcus aureus 8325-4 incubated for 3 hrs by Western blot analysis. As to conditions: dose 1.25-10 µM.

Data set [6] addresses ATP-dependent Clp protease proteolytic subunit (Escherichia coli (strain K12), UniProt P0A6G7). The data set can be described thus: Agonist activity at Escherichia coli ClpP using alpha-casein as substrate assessed as substrate hydrolysis preincubated for 15 mins followed by substrate addition and measured after 2 hrs by SDS-PAGE analysis.
The test system of data set [7] is Staphylococcus aureus. The data set can be described thus: microbe, parasite or virus in culture. The format is functional. The following applies: NRS-1, time 18 hrs.
Description: Antibacterial activity against methicillin-resistant Staphylococcus aureus NRS-1 assessed as inhibition of visible growth of bacteria incubated for 18 hrs by absorbance based analysis
The test system of data set [8] is Staphylococcus aureus. The data set can be described thus: microbe, parasite or virus in culture. The format is functional. The following applies: NRS-271, time 18 hrs.
Description: Antibacterial activity against methicillin-resistant Staphylococcus aureus NRS-271 assessed as inhibition of visible growth of bacteria incubated for 18 hrs by absorbance based analysis
The target of data set [9] is T1, ATP-dependent Clp protease proteolytic subunit, mitochondrial. The data set can be described thus: Agonist activity at human ClpP extracted from Escherichia coli Rosetta (DE3) cells using alpha-casein as substrate assessed as substrate hydrolysis preincubated for 15 mins followed by substrate addition and measured after 2 hrs by SDS-PAGE analysis.
Data set [10] relates to Staphylococcus aureus. The data set can be described thus: Antibacterial activity against CLpP complemented Staphylococcus aureus 8325-4 assessed as inhibition of visible growth of bacteria incubated for 18 hrs by absorbance based assay. The format is functional, organism-based.
The subject of data set [11] is Staphylococcus aureus. The data set can be described thus: microbe, parasite or virus in culture. The format is functional. The following applies: NRS-108, time 18 hrs.
Description: Antibacterial activity against methicillin-resistant Staphylococcus aureus NRS-108 assessed as inhibition of visible growth of bacteria incubated for 18 hrs by absorbance based analysis
Data set [12] has as its system Staphylococcus aureus. The data set can be described thus: microbe, parasite or virus in culture. The format is functional. As to conditions: time 18 hrs.
Description: Antibacterial activity against multidrug-resistant Staphylococcus aureus clinical isolate XJ052 assessed as inhibition of visible growth of bacteria incubated for 18 hrs by absorbance based analysis

Each structure is given as a SMILES string. Values after ≈ are worked out from the molar mass of the structure shown. Active and inactive are the calls of the source. The rule behind the calls is not given here. Where only a bound is given, the exact number is not on record here.

ATP-dependent Clp protease proteolytic subunit, sequence (P0A6G7 whole entry): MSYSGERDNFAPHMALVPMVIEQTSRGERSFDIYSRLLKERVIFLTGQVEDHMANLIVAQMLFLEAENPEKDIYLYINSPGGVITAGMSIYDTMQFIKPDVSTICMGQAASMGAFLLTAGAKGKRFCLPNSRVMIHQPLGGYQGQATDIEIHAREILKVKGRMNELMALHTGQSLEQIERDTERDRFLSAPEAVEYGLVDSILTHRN

Broadly, the ΔTm is the change in melting temperature against a reference sample. Turning to `CC[C@H](C)[C@H]1C(=O)N(Cc2ccc(OC)c3ccccc23)C[C@@H]2N(C(=O)NCCCC(F)(F)F)CCC(=O)N12`, the figures for the selectivity ratio in data set [1] and in data set [4] were 206 and 180, respectively. Besides, the Activity result in data set [2] is “Non-toxic”; in data set [5], “Dose-dependent-effect”. Further, the ΔTm in [3] came out at 18 °C. Also, the EC50 was greater than 100 µM in [6] and 3.6 µM in [9]. In addition, the MIC against Staphylococcus aureus [7] was 0.13 µg/mL (≈ 0.237 µM); with Staphylococcus aureus [8], 0.06 µg/mL (≈ 0.109 µM); in the data set on Staphylococcus aureus [11], 0.06 µg/mL (≈ 0.109 µM); in the data set on Staphylococcus aureus [12], 0.13 µg/mL (≈ 0.237 µM). In addition, the outcome in the data set with Staphylococcus aureus [10] was Active.
